Entries after “also recorded” stand apart in the source; their conditions may differ.

For assay [1], the system named is iPSC^ctrl organoids. Kind of assay: EdU uptake (proliferation) in iPSCctrl organoids. Type of assay: cell-based, human. As to conditions: 100 nM pretreatment 2 h before mifepristone. The method, then: (§1) iPSCs were stained for pituitary specific hormones including luteinizing hormone (LH), follicle-stimulating hormone (FSH), growth hormone (GH), prolactin (PRL), ACTH, cytokeratin 8/18 (CAM5.2), pituitary transcription factor PIT-1 and neuroendocrine marker Synaptophysin (Table 5). Cultures were immunostained for proliferation marker EdU (Click-IT EdU Alexa Fluor 555 Imaging Kit, Thermo Fisher Scientific C10338). Antibody dilutions were determined based on manufacturer guidelines and antibody titration (Table 5). Staining was conducted according to previously published protocols. Briefly, organoids and iPSCs grown in 8-well glass bottom chamber slides were fixed using 3.7% formaldehyde, washed with DPBS, permeabilized with 0.5% Triton X-100 (SIGMA X-100, PBS-T, 20 min at room temperature), washed with 0.01% PBS-T, and blocked with 2% donkey serum (Jackson Immuno Research 017-000-121) for 1 hour at room temperature. After blocking, primary antibodies were added and incubated overnight at 4° C. Slides were washed with 0.01% PBS-T and incubated with secondary antibodies (Table 5) with Hoechst (Thermo Fisher Scientific H1399) for 1 hour at room temperature. Organoids were washed and stored in PBS at 4° C. until microscopic analysis. High content confocal microscopy was performed using the Nikon Ti2-E Inverted Microscope (with a Crest X-Light V2 L-FOV Spinning Disk Confocal) at the University of Arizona Cancer Center, or a ZEISS LSM880 34 channel Laser Scanning Confocal Microscope at University of Arizona Marley Imaging Core. Fluorescence intensity was quantified as the percentage of marker-positive cells versus total cells, using Nikon Elements Software (Version 5.21.05). Proliferation for each iPSC line was quantified as the percentage of EdU-positive cells versus total cells.
(§2) Sonic Hedgehog (SHH) was withdrawn from the organoid growth media 16 hours prior to treatment. The experimental treatment groups included: vehicle (Veh), mifepristone (500 nM, Selleckchem S2606), GANT61 (5 μM, Stemcell Technologies 73692), ketoconazole (Keto, 10 μM, Selleckchem S1353), pasireotide (Pas, 100 nM, Target Mol TP2207-SB001), octreotide (Oct, 100 nM, Selleckchem P1017), mifepristone plus GANT61, mifepristone plus Keto, mifepristone plus Pas, relacorilant (500 nM, Corcept Therapeutics CORT125134), relacorilant plus Pas, relacorilant plus Oct, or dexamethasone (Dexa, 100 nM, SIGMA S4902). In the combination treatments, cultures were pretreated with the GANT61, Keto, Pas or Oct for 2 hours prior to treatment with mifepristone or Rela. […] The IC50 values used for each hPITO line for each drug were determined based on dose responses (FIG. 12). […]

The test system of assay [2] is iPSC^USP48MV organoids. Kind of assay: EdU uptake (proliferation) in iPSCUSP48MV organoids. Type of assay: cell-based, human. The following applies: 100 nM pretreatment 2 h before mifepristone. The procedure: as §1, §2
The subject of assay [3] is iPSC^ctrl organoids. Kind of assay: ACTH secretion ELISA, iPSCctrl organoids. The following applies: 100 nM pretreatment 2 h before mifepristone, FIG. 6G. Type of assay: cell-based, human. The procedure: (§3) Sonic Hedgehog (SHH) was withdrawn from the organoid growth media 16 hours prior to treatment. The experimental treatment groups included: vehicle (Veh), mifepristone (500 nM, Selleckchem S2606), GANT61 (5 μM, Stemcell Technologies 73692), ketoconazole (Keto, 10 μM, Selleckchem S1353), pasireotide (Pas, 100 nM, Target Mol TP2207-SB001), octreotide (Oct, 100 nM, Selleckchem P1017), mifepristone plus GANT61, mifepristone plus Keto, mifepristone plus Pas, relacorilant (500 nM, Corcept Therapeutics CORT125134), relacorilant plus Pas, relacorilant plus Oct, or dexamethasone (Dexa, 100 nM, SIGMA S4902). In the combination treatments, cultures were pretreated with the GANT61, Keto, Pas or Oct for 2 hours prior to treatment with mifepristone or Rela. PitNET tissue derived organoids hPITO36, hPITO37, hPITO38, hPITO39, and hPITO40 were treated with the following experimental conditions: Vehicle (1), pasireotide (2), relacorilant (3), relacorilant & pasireotide (4), mifepristone (5), mifepristone & pasireotide (6). The IC50 values used for each hPITO line for each drug were determined based on dose responses (FIG. 12). All organoid cultures were treated for 48 hours prior to analysis.
(§4) Organoid conditioned media was collected and ACTH secretion using an ELISA according to the manufacturer's protocol (Novus Biologicals Human ACTH ELISA Kit NBP2-66401). The optical density was measured at a wavelength of 450 nm, and ACTH concentration (pg/mL) was interpolated using a standard curve with a 4-parameter logistic regression analysis using GraphPad Prism (v9.3.1).
(In general: ELISA stands for enzyme-linked immunosorbent assay.)

The subject of assay [4] is iPSC^USP48MV organoids. Kind of assay: ACTH secretion ELISA, iPSCUSP48 organoids. Type of assay: cell-based, human. As to conditions: iPSCUSP48, 100 nM pretreatment 2 h before mifepristone, FIG. 7G. The method, then: as §3, §4
Assay [5] has as its system SSTR2. As to conditions: cited from earlier work.
In assay [6] the test system is SSTR2. The assay can be described thus: Differential expression of SSTR2 (qRT-PCR) in iPSC generated pituitary organoids. As to conditions: for effect on mifepristone-induced SSTR2 expression / effect on relacorilant-induced SSTR2 expression: iPSC organoids; for effect on mifepristone-induced SSTR2 expression: pretreatment 2 h before mifepristone (500 nM); for effect on relacorilant-induced SSTR2 expression: pretreatment 2 h before relacorilant (500 nM); for differential expression of SSTR2: iPSCctrl organoids, compound alone, 48 h, FIG. 5C, D. Type of assay: cell-based, human. The method, then: as §3
(§5) RNA was extracted from PitNET tissue or iPSC generated organoids using TRI Reagent® (Molecular Research Center Inc TR118) and the High Capacity cDNA Reverse Transcription Kit (Applied Biosystems, Foster City, CA) was used for cDNA synthesis of RNA following the recommended protocol. For each sample, 60 ng RNA was reverse transcribed to yield approximately […] total cDNA that was then used for the qRT-PCR. Pre-designed real-time polymerase chain reaction assays were purchased for the following genes: TPit (Thermo Fisher Scientific 4331182 Hs00193027), SF1 (Thermo Fisher Scientific 4331182 Hs00610436), SSTR2 (Thermo Fisher Scientific 4331182 Hs00265624_s1), SSTR5 (Thermo Fisher Scientific 4331182 Hs00990407_s1), POMC (Thermo Fisher Scientific 4331182 Hs01596743_ml), hPRT (Thermo Fisher Scientific 4331182 Hs02800695_ml), and FKBP5 (Thermo Fisher Scientific 4331182 Hs01561006_m1). Polymerase chain reaction amplifications were performed in a total volume of 20 μL containing 20× TaqMan Expression Assay primers, 2× TaqMan Universal Master Mix (Applied Biosystems, TaqMan® Gene Expression Systems), and cDNA template. Each polymerase chain reaction amplification was performed in triplicate wells in a StepOne Real-Time PCR System (Applied Biosystems) by using the following conditions: 500C 2 minutes, 95° C. 10 minutes, 95° C. 15 seconds (denature) and 60° C. 1 minute (anneal/extend) for 40 cycles. Fold change was calculated as the following: (Ct-Ct high)=n target, 2ntarget/2nHPRT=fold change where Ct=threshold cycle. The results were expressed as average fold change in or differential gene expression relative to control, with HPRT used as an internal control according to Livak and Schmittgen.
(Real-time PCR tracks product formation cycle by cycle.)

Assay [7] relates to SSTR5. Kind of assay: Differential expression of SSTR5 (qRT-PCR) in iPSC generated pituitary organoids. Type of assay: cell-based, human. As to conditions: for effect on mifepristone-induced SSTR5 expression / effect on relacorilant-induced SSTR5 expression: iPSC organoids; for effect on mifepristone-induced SSTR5 expression: pretreatment 2 h before mifepristone (500 nM); for effect on relacorilant-induced SSTR5 expression: pretreatment 2 h before relacorilant (500 nM); for differential expression of SSTR5: iPSCctrl organoids, compound alone, 48 h, FIG. 5C, D. The method, then:
as §3, §5

In assay [8] the test system is Hedgehog pathway. The following applies: by blocking activation of SMO or GLI1/GLI2; cited from earlier work.
The subject of assay [9] is FKBP5. The assay can be described thus: FKBP5 expression (GR target gene, qRT-PCR) in PitNET organoids. Type of assay: cell-based, human. As to conditions: PitNET organoids (iPSCctrl, iPSCUSP48MV, iPSCUSP8), 48 h, FIG. 16A-C. The procedure: as §3
as §5, with “10 minutes, 95° C. 15 seconds (denature) and 60° C. 1 minute (anneal/extend) for 40 cycles.” left out

As for `C[C@@H](O)[C@@H]1NC(=O)[C@H](CCCCN)NC(=O)[C@@H](Cc2c[nH]c3ccccc23)NC(=O)[C@H](Cc2ccccc2)NC(=O)[C@@H](NC(=O)[C@H](N)Cc2ccccc2)CSSC[C@@H](C(=O)N[C@H](CO)[C@@H](C)O)NC1=O` [octreotide], the “effect on proliferative response to mifepristone (EdU uptake)” value in assay [1] and in [2] was “inhibited” each time. Besides, the “effect on ACTH secretion in response to mifepristone” value was “inhibition by octreotide was greater that pasireotide” in [3], “significantly reduced ACTH secretion” in assay [3] (listed as Oct), “inhibition by octreotide was greater that pasireotide” in assay [4] and “significantly reduced ACTH secretion” in assay [4] (listed as Oct). For the same compound, the “binding to / activation of SSTR2” value in assay [5] was “preferentially binds or activates somatostatin receptor type 2 (SSTR2)”.

With `CC(=O)N1CCN(c2ccc(OCC3COC(Cn4ccnc4)(c4ccc(Cl)cc4Cl)O3)cc2)CC1` (stereo not shown) [ketoconazole], in [6], the “effect on mifepristone-induced SSTR2 expression” value is reported as “no effect; also recorded: failed to block the induction”, the “effect on relacorilant-induced SSTR2 expression” value is on record as “failed to block the induction” and the “differential expression of SSTR2” value is given as “no effect”. Moreover, in [6] (listed as ketoconozaole), the “effect on mifepristone-induced SSTR2 expression” value is recorded as “no effect” and the “effect on relacorilant-induced SSTR2 expression” value is reported as “no effect”. Further, in assay [7], the “effect on mifepristone-induced SSTR5 expression” value is on record as “no effect; also recorded: failed to block the induction”, the “effect on relacorilant-induced SSTR5 expression” value is on record as “no effect; also recorded: failed to block the induction” and the “differential expression of SSTR5” value is on record as “no effect”. In assay [7] (listed as ketoconozaole), the “effect on mifepristone-induced SSTR5 expression” value was “no effect” and the “effect on relacorilant-induced SSTR5 expression” value is recorded as “no effect”. Also, in assay [8], the cell proliferation entry is “reduce cell proliferation and cell viability”; the cell viability entry is “reduce cell proliferation and cell viability”.

On to `CC(C)[C@@H]1NC(=O)[C@H](CCCCN)NC(=O)[C@@H](Cc2c[nH]c3ccccc23)NC(=O)[C@H](Cc2ccc(O)cc2)NC(=O)[C@@H](NC(=O)[C@H](N)Cc2ccc3ccccc3c2)CSSC[C@@H](C(=O)N[C@H](C(N)=O)[C@@H](C)O)NC1=O` [lanreotide], for which, in [5], the “binding to / activation of SSTR2” value is “preferentially binds or activates somatostatin receptor type 2 (SSTR2)”.

With `C[C@@H]1C[C@H]2[C@@H]3CCC4=CC(=O)C=C[C@]4(C)[C@@]3(F)[C@@H](O)C[C@]2(C)[C@@]1(O)C(=O)CO` [dexamethasone], the “differential expression of SSTR2” value in assay [6] is recorded as “significantly decreased expression”. The “differential expression of SSTR5” value in [7] is listed as “significantly decreased expression”. Also, in assay [9], the “differential expression of FKBP5” value is “significant induction in gene expression”.

As to `CN(C)c1ccccc1CN1CCCN(Cc2ccccc2N(C)C)C1c1ccncc1` [GANT61], in assay [6], the “effect on mifepristone-induced SSTR2 expression” value was “reduced the induction of SSTR2 expression; also recorded: blocks SSTR2 and SSTR5 expression; also recorded: inhibited”; the “effect on relacorilant-induced SSTR2 expression” value was “blocks SSTR2 and SSTR5 expression; also recorded: inhibited”; the “differential expression of SSTR2” value was “no effect”. For the same compound, in assay [7], the “effect on mifepristone-induced SSTR5 expression” value is “blocks SSTR2 and SSTR5 expression; also recorded: reduced; also recorded: inhibited”; the “effect on relacorilant-induced SSTR5 expression” value is “reduced the induction of SSTR5 expression; also recorded: blocks SSTR2 and SSTR5 expression; also recorded: inhibited”; the “differential expression of SSTR5” value is “no effect”. Besides, in assay [8], the cell proliferation entry was “reduce cell proliferation and cell viability”; the cell viability entry is “reduce cell proliferation and cell viability”.

Source of the values: patent US20260325504A1, “Genetically Engineered Human Pituitary Corticotroph Tumor Organoids Exhibit Divergent Responses to Selective Glucocorticoid Receptor Modulators” (Corcept Therapeutics Incorporated, priority 2022, published 2026).
